According to PMC9414507, “Drug Repurposing Based on Protozoan Proteome: In Vitro Evaluation of In Silico Screened Compounds against Toxoplasma gondii” (Pharmaceutics, 2022):
Like-named read-outs stand apart in the source and are kept apart here.

Columns and labels:
[1] = Cytotoxicity in mammalian cells (MTT assay); format: cell-based; conditions: human, read-out: CC50 (Half Cytotoxic Concentration against HFF cells)
Description: HFF were seeded at 5 × 10^4 cells/well in 96-well microplates and incubated overnight to adhere to the plate. After that, the cells were incubated in the presence of increasing concentrations of the compounds for 72 h at 37 °C in a 5% CO2 humidified incubator. The viability of the cells was determined by the MTT assay as previously described. The medium in each well was replaced by PBS (100 µL/well), MTT (5 mg/mL) was added (20 µL/well), and the plate was incubated for 4 h at 37 °C. […] HFF incubated in D2 without drug treatment were used as viability control. Viability of 100% was expressed based on the optical density of untreated HFF cells, after normalization.

[2] = ref Pandemic Response Box and COVID Box supporting information; cited from earlier work

| Structure (SMILES) | CC50 at 72 h ([1]; HFF cells) [nM] | Rule of Five [2] | CC50 at 72 h ([1]; HFF) [nM] |
| --- | --- | --- | --- |
| C=CCNc1nc(NCC=C)nc(N2CCN(C(c3ccc(F)cc3)c3ccc(F)cc3)CC2)n1 [Almitrine] | > 20000 | 3 |  |
| CC(C)C[C@H](NC(=O)[C@H](Cc1ccccc1)NC(=O)c1cnccn1)B(O)O [Bortezomib] |  | 4 | 79 |
| C[C@H]1O[C@@H](O[C@H]2[C@@H](O)C[C@H](O[C@H]3[C@@H](O)C[C@H](O[C@H]4CC[C@@]5(C)[C@H](CC[C@@H]6[C@@H]5CC[C@]5(C)[C@@H](C7=CC(=O)OC7)CC[C@]65O)C4)O[C@@H]3C)O[C@@H]2C)C[C@H](O)[C@@H]1O [Digitoxin] |  | 2 |  |
| C[C@H]1O[C@@H](O[C@H]2[C@@H](O)C[C@H](O[C@H]3[C@@H](O)C[C@H](O[C@H]4CC[C@@]5(C)[C@H](CC[C@@H]6[C@@H]5C[C@@H](O)[C@]5(C)[C@@H](C7=CC(=O)OC7)CC[C@]65O)C4)O[C@@H]3C)O[C@@H]2C)C[C@H](O)[C@@H]1O [Digoxin] |  | 1 |  |
| COc1cccc2c1C(=O)c1c(O)c3c(c(O)c1C2=O)C[C@@](O)(C(=O)CO)C[C@@H]3O[C@H]1C[C@H](N)[C@H](O)[C@H](C)O1 [Doxorubicin] |  | 1 |  |
| Nc1nc(F)nc2c1ncn2[C@@H]1O[C@H](CO)[C@@H](O)[C@@H]1O [Fludarabine] |  | 4 | 2140 |
| C[C@H]1COc2c(N3CCN(C)CC3)c(F)cc3c(=O)c(C(=O)O)cn1c23 [Levofloxacin] |  | 4 |  |
| COc1c(C)c2c(c(O)c1C/C=C(\C)CCC(=O)O)C(=O)OC2 [Mycophenolic acid] |  | 4 |  |
| NC(=O)c1ncn([C@@H]2O[C@H](CO)[C@@H](O)[C@H]2O)n1 [Ribavirin] |  | 4 |  |
| COc1cc(Cc2cnc(N)nc2N)cc(OC)c1OC [Trimethoprim] |  | 4 |  |
| CCCC(CCC)C(=O)O [Valproic acid] |  | 4 |  |
